Results from article PMC11571207, “Stereorandomized Oncocins with Preserved Ribosome Binding and Antibacterial Activity” (Journal of Medicinal Chemistry, 2024).
≈ marks a conversion by molar mass, not a printed value. Non-standard residues stand in square brackets, D forms with d. Residues, ends and D or L forms follow the SMILES beside them.

Legend:
[1] = tested on: A. baumannii ATCC19606; assay: microbe, parasite or virus in culture; conditions: for MIC A. baumannii, 12.5% MHB / MIC A. baumannii, Full MHB: A. baumannii ATCC19606, 16–20 h at 37 °C; for MIC A. baumannii, 12.5% MHB: 12.5% Müller–Hinton medium; for MIC A. baumannii, Full MHB: full Müller–Hinton medium; for MIC A. baumannii ATCC19606: supplement CSV
Source text: (§1) We tested antibacterial effects against the Gram-negative bacteria Escherichia coli, Klebsiella pneumoniae, Pseudomonas aeruginosa, and Acinetobacter baumannii and the Gram-positive methicillin-resistant Staphylococcus aureus (MRSA).
(§2) Bacterial growth assay (Figure S1), transmission electron microscopy (Figure S6), serum stability assay (Figure S7), circular dichroism spectral recording (Figures S8 and S9), antimicrobial and hemolysis activity assays (MIC and MHC), and vesicle leakage assay were carried out as described in earlier publications.[43],[44]
(§3) Minimum inhibitory concentration assay
(§4) Antimicrobial activity was assayed against P. aeruginosa PAO1, K. pneumoniae NCTC418, E. coli W3110, A. baumannii ATCC 19606, methicillin-resistant S. aureus COL (MRSA), and for selected peptides on P. aeruginosa PA14 and the polymyxin-B-resistant derivative PA14 2P4, as well as the clinical isolates ZEM-1A and ZEM9A, K. pneumoniae OXA-48, S. aureus Newman, Enterobacter cloacae and Burkholderia cenocepacia. The minimal inhibitory concentration (MIC) was determined by using broth microdilution method. A colo ny of bacteria was picked and grown in Luria-Bertani (LB) medium overnight at 37°C. For E. coli BW25113 sbmA::kan the medium was supplemented with 25 mg/L of kanamycin. The next day, the culture was then regrown in LB medium to log phase (OD600 = 0.6 to 0.8), which lasted approximately 4 h, and diluted to an OD600 of 0.022 in the desired medium. Stock solutions of 1 mg/mL of the samples were prepared in sterilized milliQ water and diluted to the beginning concentration of 64 μg/mL in 300 μL Mueller Hinton (MH)-medium. The diluted samples were added to first well of 96-well microtiter plate (TPP, untreated, Faust Laborbedarf, AG, Schaffhausen) and diluted serially by ½. Finally, 4 μL of the bacterial suspension was inoculated into the sample solutions (150 μL/well) with a final inoculation of about 5∙10^5 CFU/mL. The plates were then incubated at 37°C for 15-18h. For each assay, sterility (broth only) and growth control (broth with bacterial inoculum, without antibiotics) were checked with two columns in the plate. The next day, 15 μL of 3-(4,5-dimethylthiazol-2-yl)-2,5-diphenyltetrazolium bromide (MTT) was added to each well of the plate, such a way that MIC was defined as the lowest concentration of the peptide that inhibited visible growth of the tested

[2] = tested on: E. coli W3110; assay: microbe, parasite or virus in culture; conditions: for MIC E. coli, 12.5% MHB / MIC E. coli, Full MHB: E. coli W3110, 16–20 h at 37 °C, broth microdilution; for MIC E. coli, 12.5% MHB: 12.5% Müller–Hinton medium; for MIC E. coli, Full MHB: full Müller–Hinton medium; for MIC E. coli W3110: supplement CSV
Source text: as §1, §2, §3, §4

[3] = tested on: K. pneumoniae NCTC 418; assay: microbe, parasite or virus in culture; conditions: for MIC K. pneumoniae, 12.5% MHB / MIC K. pneumoniae, Full MHB: K. pneumoniae NCTC 418, 16–20 h at 37 °C; for MIC K. pneumoniae, 12.5% MHB: 12.5% Müller–Hinton medium; for MIC K. pneumoniae, Full MHB: full Müller–Hinton medium; for MIC K. pneumoniae NCTC418: supplement CSV
Source text: as §1, §2, §3, §4

[4] = tested on: P. aeruginosa PAO1; assay: microbe, parasite or virus in culture; conditions: for MIC P. aeruginosa, 12.5% MHB / MIC P. aeruginosa, Full MHB: P. aeruginosa PAO1, 16–20 h at 37 °C; for MIC P. aeruginosa, 12.5% MHB: 12.5% Müller–Hinton medium; for MIC P. aeruginosa, Full MHB: full Müller–Hinton medium; for MIC P. aeruginosa PAO1: supplement CSV
Source text: as §1, §2, §3, §4

[5] = tested on: S. aureus COL (MRSA); assay: microbe, parasite or virus in culture; conditions: for MIC S. aureus, 12.5% MHB / MIC S. aureus, Full MHB: S. aureus COL (MRSA), 16–20 h at 37 °C; for MIC S. aureus, 12.5% MHB: 12.5% Müller–Hinton medium; for MIC S. aureus, Full MHB: full Müller–Hinton medium; for MIC S. aureus COL (MRSA): supplement CSV
Source text: as §1, §2, §3, §4

[6] = tested on: human red blood cells; assay: Hemolysis assay, minimum hemolytic concentration; conditions: for Haemolysis on hRBC, MHC: 2.5% human red blood cells (final) in 10 mM phosphate, 150 mM NaCl, pH 7.4, 25 °C, 4 h, visual inspection; for MHC human red blood cells: supplement CSV

SMILES	MIC A. baumannii, 12.5% MHB [1] [µg/mL]	MIC A. baumannii, Full MHB [1] [µg/mL]	MIC A. baumannii ATCC19606 ([1]; 12.5% MH pH 7.4) [µg/mL]	MIC A. baumannii ATCC19606 ([1]; full MH pH 7.4) [µg/mL]	MIC E. coli, 12.5% MHB [2] [µg/mL]	MIC E. coli, Full MHB [2] [µg/mL]	MIC E. coli W3110 ([2]; 12.5% MH pH 7.4) [µg/mL]	MIC E. coli W3110 ([2]; full MH pH 7.4) [µg/mL]	MIC K. pneumoniae, 12.5% MHB [3] [µg/mL]	MIC K. pneumoniae, Full MHB [3] [µg/mL]	MIC K. pneumoniae NCTC418 ([3]; 12.5% MH pH 7.4) [µg/mL]	MIC K. pneumoniae NCTC418 ([3]; full MH pH 7.4) [µg/mL]	MIC P. aeruginosa, 12.5% MHB [4] [µg/mL]	MIC P. aeruginosa, Full MHB [4] [µg/mL]	MIC P. aeruginosa PAO1 ([4]; 12.5% MH pH 7.4) [µg/mL]	MIC P. aeruginosa PAO1 ([4]; full MH pH 7.4) [µg/mL]	MIC S. aureus, 12.5% MHB [5]	MIC S. aureus, Full MHB [5]	MIC S. aureus COL (MRSA) ([5]; 12.5% MH pH 7.4) [µg/mL]	MIC S. aureus COL (MRSA) ([5]; full MH pH 7.4) [µg/mL]	other results
CC[C@H](C)[C@H](NC(=O)[C@H](CCCNC(=N)N)NC(=O)[C@H](CCCNC(=N)N)NC(=O)[C@@H]1CCCN1C(=O)[C@H]1CCCN1C(=O)[C@H](CCCNC(=N)N)NC(=O)[C@@H]1CCCN1C(=O)[C@H](CCCNC(=N)N)NC(=O)[C@@H]1CCCN1C(=O)[C@H](CC(C)C)NC(=O)[C@H](Cc1ccc(O)cc1)NC(=O)[C@@H]1CCCN1C(=O)[C@@H]1CCCN1C(=O)[C@H](CCCCN)NC(=O)[C@H](CC(=O)O)NC(=O)[C@@H](N)C(C)C)C(=O)N[C@@H](Cc1ccc(O)cc1)C(=O)N[C@@H](CC(N)=O)C(=O)N[C@@H](CCCNC(=N)N)C(N)=O [DP12-Onc] (H-VDKPPYLPRPR[dP]PRRIYNR-NH2)	8 (≈ 3.35 µM)	16 (≈ 6.69 µM)	8 (≈ 3.35 µM)	16 (≈ 6.69 µM)	2 (≈ 0.837 µM)	8 (≈ 3.35 µM)	2 (≈ 0.837 µM)	8 (≈ 3.35 µM)	4 (≈ 1.67 µM)	16 (≈ 6.69 µM)	4 (≈ 1.67 µM)	16 (≈ 6.69 µM)	16 (≈ 6.69 µM)	> 64	16 (≈ 6.69 µM)	>64	>64 / 64 μg/mL	>64 / 64 μg/mL	64 (≈ 26.8 µM)	>64	Haemolysis on hRBC, MHC [6]: >1000 µg/mL; MHC human red blood cells [6]: >1000 µg/mL
CC[C@H](C)[C@H](NC(=O)[C@H](CCCNC(=N)N)NC(=O)[C@H](CCCNC(=N)N)NC(=O)[C@@H]1CCCN1C(=O)[C@@H]1CCCN1C(=O)[C@H](CCCNC(=N)N)NC(=O)[C@@H]1CCCN1C(=O)[C@H](CCCNC(=N)N)NC(=O)[C@@H]1CCCN1C(=O)[C@H](CC(C)C)NC(=O)[C@H](Cc1ccc(O)cc1)NC(=O)[C@H]1CCCN1C(=O)[C@H]1CCCN1C(=O)[C@H](CCCCN)NC(=O)[C@H](CC(=O)O)NC(=O)[C@@H](N)C(C)C)C(=O)N[C@@H](Cc1ccc(O)cc1)C(=O)N[C@@H](CC(N)=O)C(=O)N[C@@H](CCCNC(=N)N)C(N)=O [DP45-Onc] (H-VDK[dP][dP]YLPRPRPPRRIYNR-NH2)	16 (≈ 6.69 µM)	> 64	16 (≈ 6.69 µM)	>64	8 (≈ 3.35 µM)	64 (≈ 26.8 µM)	8 (≈ 3.35 µM)	64 (≈ 26.8 µM)	> 16	> 64	>16	>64	> 16	> 64	>16	>64	>64 / >64 μg/mL	>64 / >64 μg/mL	>64	>64	Haemolysis on hRBC, MHC [6]: >1000 µg/mL; MHC human red blood cells [6]: >1000 µg/mL
